In US20240002374A1, “5-MEMBERED HETEROARYLAMINOSULFONAMIDES FOR TREATING CONDITIONS MEDIATED BY DEFICIENT CFTR ACTIVITY” (Genzyme Corporation, priority 2019, published 2024):

Each compound was assayed against T1, CFTR (primary human bronchial epithelial cells from a ΔF508 homozygous CF donor, CF-HBE cells) (Homo sapiens, UniProt P13569, DEL508-508) (assay: TECC24 recording of CFTR-mediated transepithelial chloride transport (TECC24 AUC fold over DMSO @ 3 μM)). Conditions: 3 uM test agent; CF-HBE cells (ΔF508 homozygous) incubated 48 h; ratio of test agent AUC of forskolin-stimulated IEQ to vehicle (DMSO) AUC.
T1 construct: Primary human bronchial epithelial cells from a ΔF508 homozygous CF donor; host or cells: primary human bronchial epithelial cells (CF-HBE) from a ΔF508 homozygous CF donor
T1 sequence (P13569 with tags, fused parts or gaps DEL508-508): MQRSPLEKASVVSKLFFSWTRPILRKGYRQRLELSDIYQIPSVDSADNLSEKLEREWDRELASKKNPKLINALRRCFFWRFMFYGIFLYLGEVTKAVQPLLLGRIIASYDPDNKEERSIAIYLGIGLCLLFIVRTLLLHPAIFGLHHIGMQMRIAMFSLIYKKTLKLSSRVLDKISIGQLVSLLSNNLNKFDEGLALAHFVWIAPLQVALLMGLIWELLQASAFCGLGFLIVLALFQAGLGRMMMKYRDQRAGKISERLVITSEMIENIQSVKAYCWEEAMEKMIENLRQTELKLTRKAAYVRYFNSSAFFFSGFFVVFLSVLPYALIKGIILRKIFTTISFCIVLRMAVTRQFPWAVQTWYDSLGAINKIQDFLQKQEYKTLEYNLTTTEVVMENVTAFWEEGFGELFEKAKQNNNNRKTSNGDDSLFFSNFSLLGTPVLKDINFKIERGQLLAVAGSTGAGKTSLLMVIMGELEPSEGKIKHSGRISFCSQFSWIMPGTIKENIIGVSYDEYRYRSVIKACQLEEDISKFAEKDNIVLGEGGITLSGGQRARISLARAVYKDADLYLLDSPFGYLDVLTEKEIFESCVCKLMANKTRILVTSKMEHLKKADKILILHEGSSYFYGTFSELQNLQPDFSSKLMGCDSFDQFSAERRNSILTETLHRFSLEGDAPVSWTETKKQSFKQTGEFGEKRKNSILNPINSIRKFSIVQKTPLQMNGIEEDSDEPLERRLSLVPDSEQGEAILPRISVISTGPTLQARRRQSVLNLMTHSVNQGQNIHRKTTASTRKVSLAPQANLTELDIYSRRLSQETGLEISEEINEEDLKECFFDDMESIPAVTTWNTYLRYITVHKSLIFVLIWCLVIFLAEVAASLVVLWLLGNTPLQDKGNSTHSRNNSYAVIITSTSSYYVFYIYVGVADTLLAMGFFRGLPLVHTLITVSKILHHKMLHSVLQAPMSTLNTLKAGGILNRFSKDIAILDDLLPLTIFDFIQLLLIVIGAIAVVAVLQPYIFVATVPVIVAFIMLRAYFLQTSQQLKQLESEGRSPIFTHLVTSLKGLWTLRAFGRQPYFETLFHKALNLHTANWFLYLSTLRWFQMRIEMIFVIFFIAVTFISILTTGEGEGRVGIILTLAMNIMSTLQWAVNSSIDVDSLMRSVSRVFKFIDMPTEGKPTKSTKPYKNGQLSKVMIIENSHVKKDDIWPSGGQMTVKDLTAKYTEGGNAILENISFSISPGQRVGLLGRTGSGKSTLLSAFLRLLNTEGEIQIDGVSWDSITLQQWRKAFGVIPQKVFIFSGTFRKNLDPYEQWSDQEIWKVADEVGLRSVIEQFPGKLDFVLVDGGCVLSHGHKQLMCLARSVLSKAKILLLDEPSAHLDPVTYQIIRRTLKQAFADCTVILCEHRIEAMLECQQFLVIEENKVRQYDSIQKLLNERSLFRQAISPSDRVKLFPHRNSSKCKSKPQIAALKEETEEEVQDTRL
Assay type: cell-based
Description: Example 510: TECC24 AUC Fold Over DMSO @ 3 μM
The effects of a test agent on CFTR-mediated transepithelial chloride transport was measured using TECC24 recording analysis. Test agents were solubilized in DMSO. Solubilized test agents were mixed with incubation medium containing DMEM/F12, Ultroser G (2%; Crescent Chemical, catalog #67042), Hyclone Fetal Clone H (2%; GE Healthcare, catalog #SH30066.02), bovine brain extract (0.25%; Lonza, catalog #CC-4098), insulin (2.5 μg/mL), IL-13 (10 ng/mL), hydrocortisone (20 nM), transferrin (2.5 μg/mL), triiodothyronine (500 nM), ethanolamine (250 nM), epinephrine (1.5 μM), phosphoethanolamine (250 nM), and retinoic acid (10 nM). Primary human bronchial epithelial cells from a ΔF508 homozygous CF donor (CF-HBE cells; from University of North Carolina Cystic Fibrosis Tissue Procurement Center), grown on Transwell HTS 24-well cell culture inserts (Costar, catalog #3378), were exposed to test agents or controls dissolved in incubation medium. The CF-HBE cells were cultured at 36.5° C. for 48 h before TECC24 recordings were performed in the presence or absence of test agent, a positive control or vehicle (DMSO).
Following incubation, the transwell cell culture inserts containing the test agent or control-treated CF-HBE cells were loaded onto a TECC24 apparatus (TECC v7 or MTECC v2; EP Design) to record the transepithelial voltage (VT) and resistance (TEER) using 4 AgCl electrodes per well configured in current-clamp mode. The apical and basolateral bath solutions both contained (in mM) 140 NaCl, 5 KCl, 2 CaCl2), 1 MgCl2, 10 Hepes, and 10 glucose (adjusted to pH 7.4 with NaOH) […]. To inhibit basal Na+ absorption, the ENaC inhibitor benzamil (10 μM) was added to the bath. Then, the adenylate cyclase activator, forskolin (10 μM), was added to the bath to activate CFTR. The forskolin-stimulated Cl− transport was halted by addition of bumetanide (20 μM), an inhibitor of the basolateral chloride co-transporter NKCC1, to the bath to confirm that the detected signal was chloride dependent. VT and TEER recordings were digitally acquired at routine intervals using TECC or MTECC software (EP Design). VT and TEER were transformed into equivalent transepithelial Cl− current (IEQ), and the Area Under the Curve (AUC) of the IEQ time course between forskolin and bumetanide addition is generated using Excel (Microsoft). Efficacy is expressed as the ratio of the test agent AUC divided by vehicle AUC. EC50s based on AUC are generated using the non-linear regression log(agonist) vs. response function in Prism software (GraphPad) with Hill Slope fixed=1.
If a test agent increased the AUC of the forskolin-stimulated IEQ relative to vehicle in CF-HBE cells, and this increase was inhibited by bumetanide, then the test agent was considered a CFTR corrector.

Row | Compound | TECC AUC vs. DMSO @ 3 uM
1 | Nc1cccc(S(=O)(=O)Nc2nc(-c3ccc(C(F)(F)F)cc3)c(-c3cc(F)cc(O[C@@H]4CCC(OC(F)(F)F)C4)c3)s2)c1 (single isomer, unassigned) [Example 43B] | A (“A” refers to AUC > 5)
2 | Cc1cccc(C)c1-c1nc(NS(=O)(=O)c2cccc(N)c2)sc1-c1cc(F)cc(OCCC(C)(C)C)c1 [Example 7, 3-Amino-N-(5-(3-(3,3-dimethylbutoxy)-5-fluorophenyl)-4-(2,6-dimethylphenyl)thiazol-2-yl)benzenesulfonamide] | A (“A” refers to AUC > 5)
3 | Cc1cccc(C)c1-c1nc(NS(=O)(=O)c2cn(C)nc2C)sc1N1C[C@H](OC(C)(C)C)C[C@H]1C [Example 495, N-[4-(2,6-dimethylphenyl)-5-[(2R,4R)-2-methyl-4-[(2-methylpropan-2-yl)oxy]pyrrolidin-1-yl]-1,3-thiazol-2-yl]-1,3-dimethylpyrazole-4-sulfonamide] | B (“B” refers to AUC 2-5)
4 | Cc1nn(C)cc1S(=O)(=O)Nc1nc(-c2ccccc2C(F)(F)F)c(-c2cccc([C@@H]3CC[C@@H](OC(F)(F)F)C3)c2)s1 (single isomer, unassigned) [Example 45B2] | C (“C” refers to AUC < 2)
5 | Cc1cccc(C)c1-c1nc(NS(=O)(=O)c2cccc(N)c2F)sc1N1CCOC2(CCC(C)(C)C2)C1 (stereo not drawn) [Example 38, 3-Amino-N-(5-(2,2-dimethyl-6-oxa-9-azaspiro[4.5]decan-9-yl)-4-(2,6-dimethylphenyl)thiazol-2-yl)-2-fluorobenzenesulfonamide] | A (“A” refers to AUC > 5)
6 | O=S(=O)(Nc1nc(-c2ccccc2C(F)(F)F)c(-c2cccc([C@H]3CC[C@@H](OC(F)(F)F)C3)c2)s1)c1ccccc1 (single isomer, unassigned) [Example 44A1] | B (“B” refers to AUC 2-5)
7 | CC(C)c1ccccc1-c1nc(NS(=O)(=O)c2cccc(N[C@H](C(=O)O)C(C)(C)C)n2)sc1-c1cccc(OCCC(C)(C)C)c1 [Example 36, (S)-2-((6-(N-(5-(3-(3,3-Dimethylbutoxy)phenyl)-4-(2-isopropylphenyl)thiazol-2-yl)sulfamoyl)pyridin-2-yl)amino)-3,3-dimethylbutanoic Acid] | A (“A” refers to AUC > 5)
8 | O=S(=O)(Nc1nc(-c2ccccc2C(F)(F)F)c(-c2cccc([C@@H]3CC[C@H](OC(F)(F)F)C3)c2)s1)c1ccccc1 (single isomer, unassigned) [Example 44B2] | C (“C” refers to AUC < 2)
9 | CC(C)c1ccccc1-c1nc(NS(=O)(=O)c2cccc(N)n2)sc1N1CCOC2(CCC(C)(C)C2)C1 (stereo not drawn) [Example 349, 6-amino-N-[5-(3,3-dimethyl-6-oxa-9-azaspiro[4.5]decan-9-yl)-4-(2-propan-2-ylphenyl)-1,3-thiazol-2-yl]pyridine-2-sulfonamide] | A (“A” refers to AUC > 5)
10 | CC(C)c1ccccc1-c1nc(NS(=O)(=O)c2ccnc(N)c2)sc1-c1cc(F)cc(OCCC(C)(C)C)c1 [Example 33, 2-Amino-N-(5-(3-(3,3-dimethylbutoxy)-5-fluorophenyl)-4-(2-isopropylphenyl)thiazol-2-yl)pyridine-4-sulfonamide] | A (“A” refers to AUC > 5)
11 | CC(C)(C)CCOc1cccc(-c2sc(NS(=O)(=O)c3cccc(N)c3)nc2-c2ccc(C(F)(F)F)cc2)c1 [Example 10, 3-Amino-N-(5-(3-(3,3-dimethylbutoxy)phenyl)-4-(4-(trifluoromethyl)phenyl)thiazol-2-yl)benzenesulfonamide] | A (“A” refers to AUC > 5)
12 | Cc1cccc(C)c1-c1nc(NS(=O)(=O)c2cccc(N(C)C)n2)sc1-c1cccc(OC2CCC(C)(C)C2)c1 (stereo not drawn) [Example 358, 6-(dimethylamino)-N-[5-[3-(3,3-dimethylcyclopentyl)oxyphenyl]-4-(2,6-dimethylphenyl)-1,3-thiazol-2-yl]pyridine-2-sulfonamide] | A (“A” refers to AUC > 5)
13 | Cc1cccc(C)c1-c1nc(NS(=O)(=O)c2cc(N)ccc2F)sc1-c1ccc(F)c(OCC(C)(C)C(F)(F)F)c1 [Example 12, 5-Amino-N-(4-(2,6-dimethylphenyl)-5-(4-fluoro-3-(3,3,3-trifluoro-2,2-dimethylpropoxy)phenyl)thiazol-2-yl)-2-fluorobenzenesulfonamide] | A (“A” refers to AUC > 5)
14 | CC(C)(C)CCOc1cccc(-c2sc(NS(=O)(=O)c3cccc(NC(=O)C4CC4)c3)nc2-c2ccccc2C(F)(F)F)c1 [Example 19, N-(3-(N-(5-(3-(3,3-Dimethylbutoxy)phenyl)-4-(2-(trifluoromethyl)phenyl)thiazol-2-yl)sulfamoyl)phenyl)cyclopropanecarboxamide] | A (“A” refers to AUC > 5)
15 | O=S(=O)(Nc1nc(-c2ccccc2C(F)(F)F)c(-c2cccc([C@@H]3CC[C@@H](OC(F)(F)F)C3)c2)s1)c1ccccc1 (single isomer, unassigned) [Example 44B1] | B (“B” refers to AUC 2-5)
16 | CC(C)c1ccccc1-c1nc(NS(=O)(=O)c2cccc(N)c2F)sc1-c1cccc([C@@H]2CC[C@H](OC(F)(F)F)C2)c1 [Example 48B1, 3-Amino-2-fluoro-N-(4-(2-isopropylphenyl)-5-(3-((1R,3S)-3-(trifluoromethoxy)cyclopentyl)phenyl)thiazol-2-yl)benzenesulfonamide] | B (“B” refers to AUC 2-5)
17 | Cc1cccc(C)c1-c1nc(NS(=O)(=O)c2cn(C)nc2C)sc1N1CCOC2(CCC(OC(F)(F)F)C2)C1 (stereo not drawn) [Example 491, N-[4-(2,6-dimethylphenyl)-5-[3-(trifluoromethoxy)-6-oxa-9-azaspiro[4.5]decan-9-yl]-1,3-thiazol-2-yl]-1,3-dimethylpyrazole-4-sulfonamide] | B (“B” refers to AUC 2-5)
18 | Cc1cccc(OC(C)C)c1-c1nc(NS(=O)(=O)c2cccc(N(C)C)n2)sc1-c1cccc(OCCC(C)(C)C)c1 [Example 329, 6-(dimethylamino)-N-[5-[3-(3,3-dimethylbutoxy)phenyl]-4-(2-methyl-6-propan-2-yloxyphenyl)-1,3-thiazol-2-yl]pyridine-2-sulfonamide] | A (“A” refers to AUC > 5)
19 | CC(C)c1ccccc1-c1nc(NS(=O)(=O)c2cccc(N)c2F)sc1-c1cccc(OCC(F)(F)C(C)(C)C)c1 [Example 23, 3-Amino-N-(5-(3-(2,2-difluoro-3,3-dimethylbutoxy)phenyl)-4-(2-isopropylphenyl)thiazol-2-yl)-2-fluorobenzenesulfonamide] | A (“A” refers to AUC > 5)
20 | Cc1nn(C)cc1S(=O)(=O)Nc1nc(-c2ccccc2C(C)C)c(-c2cccc([C@H]3CC[C@H](OC(F)(F)F)C3)c2)s1 [Example 46A2, N-(4-(2-Isopropylphenyl)-5-(3-((1S,3S)-3-(trifluoromethoxy)cyclopentyl)phenyl)thiazol-2-yl)-1,3-dimethyl-1H-pyrazole-4-sulfonamide] | B (“B” refers to AUC 2-5)
21 | Cc1cccc(C)c1-c1nc(NS(=O)(=O)c2ccnc(N)c2)sc1N1CCOC(CCCC(C)(C)C)C1 (stereo not drawn) [Example 37, 2-Amino-N-(5-(2-(4,4-dimethylpentyl)morpholino)-4-(2,6-dimethylphenyl)thiazol-2-yl)pyridine-4-sulfonamide] | A (“A” refers to AUC > 5)
22 | Cc1nn(C)cc1S(=O)(=O)Nc1nc(-c2ccccc2C(F)(F)F)c(-c2cccc([C@@H]3CC[C@H](OC(F)(F)F)C3)c2)s1 (single isomer, unassigned) [Example 45B1] | A (“A” refers to AUC > 5)
23 | CC(C)Oc1cc(Cl)ccc1-c1nc(NS(=O)(=O)c2cccc(N)c2F)sc1-c1cccc(OCC(F)(F)C(C)(C)C)c1 [Example 382] | A (“A” refers to AUC > 5)
24 | CC(C)(C)CCOc1cc(F)cc(-c2sc(NS(=O)(=O)c3cccc(N)c3)nc2-c2ccc(C(F)(F)F)cc2)c1 [Example 9, 3-Amino-N-(5-(3-(3,3-dimethylbutoxy)-5-fluorophenyl)-4-(4-(trifluoromethyl)phenyl)thiazol-2-yl)benzenesulfonamide] | B (“B” refers to AUC 2-5)
